Measurements reported in the supplement of paper PMC8967900.

Columns and labels:
Assay in all cases: selective drug sensitivity score (sDSS, relative to normal bone marrow) (sDSS (score)); higher = more potent and effective on the cell line relative to normal bone marrow cells
Settings in all cases: 72 h
ALL-PO = tested on: ALL-PO
COG-LL-332h = tested on: COG-LL-332h
COG-LL-317 = tested on: COG-LL-317
CCRF-HSB2 = tested on: CCRF-HSB2
PF-382 = tested on: PF-382
ALL-SIL = tested on: ALL-SIL
MOLT-4 = tested on: MOLT-4
DND-41 = tested on: DND-41
RPMI-8402 = tested on: RPMI-8402
LC4-1 = tested on: LC4-1
KASUMI-9 = tested on: KASUMI-9
SUP-B15 = tested on: SUP-B15
JURKAT = tested on: JURKAT
CCRF-CEM = tested on: CCRF-CEM
697 = tested on: 697
COG-LL-319h = tested on: COG-LL-319h
P12-ICHIKAWA = tested on: P12-ICHIKAWA
HAL-01 = tested on: HAL-01
NALM-6 = tested on: NALM-6
KASUMI-2 = tested on: KASUMI-2
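Further: ALL cell lines in 384-well plates, five doses spanning 10,000-fold, each plate scaled between vehicle and 100 µmol/L benzalkonium chloride controls, sDSS an adapted area-under-curve metric.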

SMILES	selective drug sensitivity score (ALL-PO)	selective drug sensitivity score (COG-LL-332h)	selective drug sensitivity score (COG-LL-317)	selective drug sensitivity score (CCRF-HSB2)	selective drug sensitivity score (PF-382)	selective drug sensitivity score (ALL-SIL)	selective drug sensitivity score (MOLT-4)	selective drug sensitivity score (DND-41)	selective drug sensitivity score (RPMI-8402)	selective drug sensitivity score (LC4-1)	selective drug sensitivity score (KASUMI-9)	selective drug sensitivity score (SUP-B15)	selective drug sensitivity score (JURKAT)	selective drug sensitivity score (CCRF-CEM)	selective drug sensitivity score 697	selective drug sensitivity score (COG-LL-319h)	selective drug sensitivity score (P12-ICHIKAWA)	selective drug sensitivity score (HAL-01)	selective drug sensitivity score (NALM-6)	selective drug sensitivity score (KASUMI-2)
Clc1ccc(Nc2nnc(Cc3ccncc3)c3ccccc23)cc1 [Vatalanib] (top concentration 10000 nM)	0	0.7	0.5	1.1	0	0.1	0	0	0	0	0	0	0	0	0	0	0	0	0	0
COc1cc2nccc(Oc3ccc(NC(=O)NC4CC4)c(Cl)c3)c2cc1C(N)=O [Lenvatinib] (top concentration 2500 nM)	3.86	1.66	-0.24	5.06	-0.24	5.56	0.36	-0.24	-0.24	-0.24	1.36	6.46	-0.24	0.16	2.16	6.16	-0.24	0.76	-0.24	-0.14
CC(=O)[C@]1(O)Cc2c(O)c3c(c(O)c2[C@@H](O[C@H]2C[C@H](N)[C@H](O)[C@H](C)O2)C1)C(=O)c1ccccc1C3=O [Idarubicin] (top concentration 1000 nM)	1.64	10	13.2	12.3	1.24	4.64	7.74	0.34	10.5	4.04	4.94	9.74	3.34	8.84	8.84	16.7	8.24	7.24	7.94	11.5
CN(C)C(=O)c1cc2cnc(Nc3ccc(N4CCNCC4)cn3)nc2n1C1CCCC1 [Ribociclib] (top concentration 10000 nM)	0.98	1.58	0.38	1.48	2.88	-1.12	-1.02	1.68	2.98	4.18	6.38	1.58	0.48	3.08	8.18	2.18	2.18	0.38	1.18	-0.92
CC[C@@](C)(Nc1ccnc(-c2c[nH]c3ncccc23)n1)C(=O)NCC(F)(F)F [Decernotinib] (top concentration 10000 nM)	-3.94	-3.34	-3.94	1.16	-3.94	-2.44	-3.94	-2.64	-3.44	-3.94	-3.74	-3.94	-3.94	-3.94	-1.54	-3.94	-3.94	-3.94	-3.94	-1.84
O=C(c1ccc(OCCN2CCCCC2)cc1)c1c(-c2ccc(O)cc2)sc2cc(O)ccc12 [Raloxifene] (top concentration 10000 nM)	-0.38	0.92	0.42	2.42	-0.58	1.72	1.42	4.52	1.92	-0.38	-0.68	-2.18	-0.58	1.42	-0.28	-2.28	-0.48	1.82	-0.88	-2.28
O=c1[nH]c(=O)n([C@H]2C[C@H](O)[C@@H](CO)O2)cc1F [Floxuridine] (top concentration 10000 nM)	36.5	26.1	32.4	4.42	9.82	18.3	26.6	21	26	36.2	29	42.4	18.7	31.1	35.8	26.8	30.4	23.7	24.2	33.4
CCCCCOC(=O)Nc1nc(=O)n([C@@H]2O[C@H](C)[C@@H](O)[C@H]2O)cc1F [Capecitabine] (top concentration 10000 nM)	-0.06	-0.06	-0.06	-0.06	-0.06	-0.06	-0.06	1.84	-0.06	-0.06	-0.06	-0.06	-0.06	-0.06	-0.06	-0.06	-0.06	0.44	-0.06	-0.06
COc1cc2c(cc1OC(C)C)[C@H](c1ccc(Cl)cc1)N(c1ccc(N(C)C[C@H]3CC[C@H](N4CCN(C)C(=O)C4)CC3)cc1)C(=O)C2 [NVP-CGM097] (top concentration 25000 nM)	-3.84	8.26	17.2	8.76	-5.04	-6.74	11.8	-5.64	-4.64	10.1	14.5	18.6	-4.44	-4.24	7.86	10.8	-5.64	10.6	5.66	8.16
COc1ncc(-c2ccc3nccc(-c4ccnnc4)c3c2)cc1NS(=O)(=O)c1ccc(F)cc1F [Omipalisib] (top concentration 1000 nM)	21.9	3.2	4	8.4	9.8	4.6	14	-0.8	10.9	1.6	12.6	7.3	4.2	12	11.9	9.8	4	20.1	17.2	12.9
CNC(=O)c1cc(COc2nnc(Nc3ccc(Cl)cc3)c3ccoc23)ccn1 [Telatinib] (top concentration 10000 nM)	0	0	0	0	0	0	0	0	0	0.7	1	0	0	0	1.6	0	0	1.8	0	0
CCCC(CCC)C(=O)O [Valproic_acid] (top concentration 1000000 nM)	0	0	0	0	0	0	0	0	0	0	0	0	0	0	0	0	0	0	0	0
O=C(NC[C@H](O)CN1CCc2ccccc2C1)c1cc(NC2COC2)ncn1 (top concentration 10000 nM)	-0.06	1.54	10.6	1.64	-0.06	-0.06	2.74	-0.06	-0.06	-0.06	-0.06	1.54	-0.06	-0.06	0.84	9.34	0.24	-0.06	-0.06	-0.06
COC(=O)c1ccc2c(c1)[nH]c1ncnc(NCCCN3CCCCC3)c12 [UM729] (top concentration 10000 nM)	2.54	1.94	0.94	2.84	1.24	1.44	2.04	0.64	2.34	1.54	2.44	2.24	-0.06	3.84	1.64	-0.06	-0.06	-0.06	0.34	-0.06
OC[C@H]1O[C@@H](n2cnc3c2N=CNC[C@H]3O)C[C@@H]1O [Pentostatin] (top concentration 10000 nM)	-0.44	-0.44	-0.44	-0.44	-0.44	-0.44	-0.44	-0.44	-0.44	-0.44	-0.44	0.66	-0.44	-0.34	-0.44	3.06	-0.44	0.36	-0.44	-0.44
CCOc1cc2ncc(C#N)c(Nc3ccc(OCc4ccccn4)c(Cl)c3)c2cc1NC(=O)/C=C/CN(C)C [Neratinib] (top concentration 1000 nM)	5.28	1.88	1.18	1.78	0.88	1.08	1.38	-0.62	3.08	3.58	3.68	1.48	1.48	2.48	6.28	6.58	1.28	-0.42	0.48	-0.72
Nc1nc(Cl)nc2c1ncn2[C@H]1C[C@H](O)[C@@H](CO)O1 [Cladribine] (top concentration 1000 nM)	8.66	3.26	1.06	-0.04	-5.54	9.36	-7.74	1.16	-4.74	6.26	7.76	9.36	-10.7	5.16	10.5	7.76	-5.24	-0.14	0.46	6.76
Cc1cnc(-c2ccccc2C(C)C)nc1NCc1ccc(-n2ccnn2)cc1 [ML323] (top concentration 10000 nM)	3.14	2.04	1.04	1.84	3.04	2.64	1.34	1.34	3.44	0.54	0.04	2.94	4.14	0.44	3.54	1.14	1.74	0.04	1.84	0.14
